pEC50: −log10 of the molar value. d = 2'-deoxy (DNA); m = 2'-O-methyl
Legend:
[1] = test system: Human cancer HCT116 cells; assay: cell cycle arrest by FACS; format: cell-based; conditions: HCT116, 16 hours; concentration to induce a (G2+M)/S ratio of 2.5
Experimental: Human cancer HCT116 cells were plated at 2×10^5 per 10-cm dish and were left to attach to the dish overnight in the incubator. Cells were treated with small molecule inhibitors at various concentrations (1 uM and 10 uM, typically, dissolved in DMSO) for 16 hours. Cells were harvested by trypsinization and washed once in 1×PBS (phosphate buffered saline). The cells were resuspended in about 200 ul 1×PBS and were fixed by slowly adding 1 ml 70% ethanol at −20° C. and were left at least overnight at −20° C. Fixed cells were centrifuged at low speed (1,000 rpm) for 5 minutes, and the cell pellets were washed again with 1×PBS. Nucleic acids from fixed cells were incubated in a staining solution (0.1% (w/v) glucose in 1×PBS containing 50 ug/ml propidium iodide) (Sigma-Aldridge, Mississauga, Ontario, CA) and RNase A (final 100 units/ml, (Sigma-Aldridge, Mississauga, Ontario, CA) for at least 30 minutes in the dark at 25° C. DNA content was measured by using a fluorescence-activated cell sorter (FACS) machine. Treatment of cells with all HDAC small molecule inhibitors in Table 2 results in a significant accumulation of cancer cell in G2/M phase of the cell cycle and concomitantly reduce the accumulation of cancer cells in S phase of the cell cycle. The ratio of cells in G2/M phase vs. cells in the S. phase was determined. […]

[2] = test system: human colon cancer HCT116 cells; assay: MTT assay of cell proliferation; format: cell-based; conditions: HCT-116, 72 hours
Experimental: Two thousand (2,000) human colon cancer HCT116 cells (ATCC, Manassas, Va. were used in an MTT (3-[4,5-dimethylthiazol-2-yl]-2,5 diphenyl tetrazolium bromide) assay to quantitatively determine cell proliferation and cytotoxicity. Typically, HCT116 cells were plated into each well of the 96-well tissue culture plate and left overnight to attach to the plate. Compounds at various concentrations were added into the culture media (final DMSO concentration 1%) and incubated for 72 hours. MTT solution (obtained from Sigma as powder) was added and incubated with the cells for 4 hours at 37° C. in incubator with 5% CO2. During the incubation, viable cells convert MTT to a water-insoluble formazan dye. Solubilizing buffer (50% N,N-dimethylformamide, 20% SDS, pH 4.7) was added to cells and incubated for overnight at 37C in incubator with 5% CO2. Solubilized dye was quantitated by calorimetric reading at […] using a reference of […]. Optical density values were converted to cell number values by comparison to a standard growth curve for each cell line.

T24 [3] = assay: apoptosis, Cell Death Detection ELISA, T24; format: cell-based, human; conditions: OSDN
Experimental: (§1) In order to determine the effect of HDAC OSDNs on cell growth and cell death through apoptosis, A549 or T24 cells, MDAmb231 cells, and HMEC cells (ATCC, Manassas, Va.) were treated with HDAC OSDNs as previously described.
(§2) For the apoptosis study, cells were analyzed using the Cell Death Detection ELISA^Plus kit (Roche Diagnostic GmBH, Mannheim, Germany) according to the manufacturer's directions. Typically, 10,000 cells were plated in 96-well tissue culture dishes for 2 hours before harvest and lysis. Each sample was analyzed in duplicate. ELISA reading was done using a MR700 plate reader (DYNEX Technology, Ashford, Middlesex, England) at 410 nm. The reference was set at 490 nm.

human HDAC-1 RNA = assay: antisense screen by Northern blot in T24 cells, HDAC-1; format: cell-based; conditions: 100 nM, 24 hours
Experimental: (§3) Briefly, human A549 and/or T24 human bladder carcinoma cells were seeded in 10 cm tissue culture dishes one day prior to oligonucleotide treatment. The cell lines were obtained from the American Type Culture Collection (ATCC) (Manassas, Va.) and were grown under the recommended culture conditions. Before the addition of the oligonucleotides, cells were washed with PBS (phosphate buffered saline). Next, lipofectin transfection reagent (GIBCO BRL Mississauga, Ontario, Calif.), at a concentration of 6.25 μg/ml, was added to serum free OPTIMEM medium (GIBCO BRL, Rockville, Md.), which was then added to the cells. The oligonucleotides to be screened were then added directly to the cells (i.e., one oligonucleotide per plate of cells). Mismatched oligonucleotides were used as controls. The same concentration of oligonucleotide (e.g., 50 nM) was used per plate of cells for each oligonucleotide tested.
Cells were harvested, and total RNAs were analyzed by Northern blot analysis. Briefly, total RNA was extracted using RNeasy miniprep columns (QIAGEN). Ten to twenty μg of total RNA was run on a formaldehyde-containing 1% agarose gel with 0.5 M sodium phosphate (pH 7.0) as the buffer system. RNAs were then transferred to nitrocellulose membranes and hybridized with the indicated radiolabeled DNA probes. Autoradiography was performed using conventional procedures.

A549 [4] = assay: apoptosis, Cell Death Detection ELISA, A549; format: cell-based, human; conditions: OSDN
Experimental: as §1, §2

[5] = test system: cyclin A in Human cancer A549 cells; assay: Western blot of cyclin A in A549 cells; format: cell-based; conditions: 48 hours, FIG. 16
Experimental: (§4) Human cancer A549 cells were treated with AS1, AS2 or MM oligo directed human HDAC1 for 48 hours. Total cell lysates were harvested and analyzed by Western blot using antibodies against human HDAC1, cyclin B1, cyclin A and actin (all from Santa Cruz Biotechnology, Inc., Santa Cruz, Calif.). […] (FIG. 16)

[6] = test system: cyclin B1 in Human cancer A549 cells; assay: Western blot of cyclin B1 in A549 cells; format: cell-based; conditions: 48 hours, FIG. 16
Experimental: as §4

HMEC [7] = assay: apoptosis, Cell Death Detection ELISA, HMEC; format: cell-based, human; conditions: OSDN, normal cells
Experimental: as §1, §2

MDAmb231 [8] = assay: apoptosis, Cell Death Detection ELISA, MDAmb231; format: cell-based, human; conditions: OSDN
Experimental: as §1, §2

human HDAC-2 RNA = assay: antisense screen by Northern blot in T24 cells, HDAC-2; format: cell-based; conditions: screened as above (T24 cells, 100 nM, 24 hours)
Experimental: Twenty-four phosphorothioate ODNs containing sequences complementary to the 5′ or 3′ UTR of the human HDAC-2 gene (GenBank Accession No. U31814) were screened as above. […] HDAC-2 MM was created as a control; compared to the antisense oligo, it contains a 7-base mismatch.
as §3
(§5) Cells were harvested, and total RNAs were analyzed by Northern blot analysis. Briefly, total RNA was extracted using RNeasy miniprep columns (QIAGEN). […]

human cancer cells = assay: cell growth and apoptosis of human cancer cells; format: cell-based; conditions: for growth arrest and apoptosis of human cancer cells: text summary of FIGS. 11-13, Tables 4 and 5
Experimental: as §1, §2
(§6) Cells were harvested and cell numbers counted by trypan blue exclusion using a hemocytometer. Percentage of inhibition was calculated as (100—AS cell numbers/control cell numbers)%.

MDAmb231 [9] = assay: cell growth analysis (trypan blue cell count), MDAmb231; format: cell-based, human; conditions: 50 nM, 72 hours
Experimental: as §3, §1, §6

HMEC [10] = assay: cell growth analysis (trypan blue cell count), HMEC; format: cell-based, human; conditions: 50 nM, 72 hours, normal cells
Experimental: as §3, §1, §6

human HDAC-3 RNA = assay: antisense screen by Northern blot in T24 cells, HDAC-3; format: cell-based; conditions: screened as above (T24 cells, 100 nM, 24 hours)
Experimental: Twenty-one phosphorothioate ODNs containing sequences complementary to the 5′ or 3′ UTR of the human HDAC-3 gene (GenBank Accession No. AF039703) were screened as above. […] HDAC-3 MM oligonucleotide was created as a control; compared to the antisense oligonucleotide, it contains a 6-base mismatch.
as §3, §5

A549 [11] = assay: cell growth analysis (trypan blue cell count), A549; format: cell-based, human; conditions: 50 nM, 72 hours
Experimental: as §3, §1, §6

T24 [12] = assay: cell growth analysis (trypan blue cell count), T24; format: cell-based, human; conditions: 50 nM, 72 hours
Experimental: as §3, §1, §6

human HDAC-4 RNA = assay: antisense screen by Northern blot in T24 cells, HDAC-4; format: cell-based; conditions: screened as above (T24 cells, 100 nM, 24 hours)
Experimental: Seventeen phosphorothioate ODNs containing sequences complementary to the 5′ or 3′ UTR of the human HDAC-4 gene (GenBank Accession No. AB006626) were screened as above. […] HDAC-4 MM1 and MM2 oligonucleotides were created as controls; compared to the antisense oligonucleotides, they each contain a 6-base mismatch.
as §3, §5

human HDAC-5 RNA = assay: antisense screen by Northern blot in T24 cells, HDAC-5; format: cell-based; conditions: screened as above (T24 cells, 100 nM, 24 hours)
Experimental: Thirteen phosphorothioate ODNs containing sequences complementary to the 5′ or 3′ untranslated regions of the human HDAC-5 gene (GenBank Accession No. AF039691) were screened as above.
as §3
Cells were harvested, and total RNAs were analyzed by Northern blot analysis. Briefly, total RNA was extracted using RNeasy miniprep columns (QIAGEN). Ten to twenty μg of total RNA was run on a formaldehyde-containing 1% agarose gel with 0.5 M sodium phosphate (pH 7.0) as the buffer system. […]

human HDAC-6 RNA = assay: antisense screen by Northern blot in T24 cells, HDAC-6; format: cell-based; conditions: screened as above (T24 cells, 100 nM, 24 hours)
Experimental: Thirteen phosphorothioate ODNs containing sequences complementary to the 5′ or 3′ untranslated regions of the human HDAC-6 gene (GenBank Accession No. AJ011972) were screened as above. […] HDAC-6 MM oligo was created as a control; compared to the antisense oligo, it contains a 7-base mismatch.
as §3, §5

CC(/C=C/C(=O)Nc1ccccc1N)=C\C(C)C(=O)c1ccc(N(C)C)cc1 (stereo not drawn) [Compound 1]
Cell Cycle Arrest EC [1]: 2 µM
pEC50 [2]: 5.52

HDAC-1 AS1: antisense oligonucleotide to human HDAC1, 5′-GAAACGTGAGGGACTCAGCA-3′ (SEQ ID NO:17) (chemistry not given here)
Apoptosis After 48 Hour Treatment T24 (T24 [3]): − (< = 2x fold over non-specific background)
antisense activity to human HDAC-1 (RNA expression, Northern blot) (human HDAC-1 RNA): antisense activity
Apoptosis After 48 Hour Treatment A549 (A549 [4]): + (2-3X fold)
expression of cyclin A [5]: repress expression
expression of cyclin B1 [6]: repress expression
Apoptosis After 48 Hour Treatment HMEC (HMEC [7]): − (< = 2x fold over non-specific background)

HDAC-1 AS2: antisense oligonucleotide to human HDAC1, 5′-GGAAGCCAGAGCTGGAGAGG-3′ (SEQ ID NO:18) (chemistry not given here)
antisense activity to human HDAC-1 (RNA expression, Northern blot) (human HDAC-1 RNA): antisense activity
expression of cyclin A [5]: repress expression
expression of cyclin B1 [6]: repress expression

HDAC-2 AS: antisense oligonucleotide to human HDAC2, 5′-GCTGAGCTGTTCTGATTTGG-3′ (SEQ ID NO:20) (chemistry not given here)
Apoptosis After 48 Hour Treatment T24 (T24 [3]): − (< = 2x fold over non-specific background)
Apoptosis After 48 Hour Treatment MDAmb231 (MDAmb231 [8]): − (< = 2x fold over non-specific background)
Apoptosis After 48 Hour Treatment A549 (A549 [4]): − (< = 2x fold over non-specific background)
antisense activity to human HDAC-2 (RNA expression, Northern blot) (human HDAC-2 RNA): antisense activity
cancer cell growth inhibition (human cancer cells): minimal effect
Growth Inhibition (AS vs. MM) MDAmb231 (MDAmb231 [9]): − (no inhibition)
Apoptosis After 48 Hour Treatment HMEC (HMEC [7]): − (< = 2x fold over non-specific background)

HDAC-3 AS: antisense oligonucleotide to human HDAC3, 5′-CGCTTTCCTTGTCATTGACA-3′ (SEQ ID NO:22) (chemistry not given here)
Apoptosis After 48 Hour Treatment T24 (T24 [3]): − (< = 2x fold over non-specific background)
Growth Inhibition (AS vs. MM) HMEC (HMEC [10]): − (no inhibition)
Apoptosis After 48 Hour Treatment MDAmb231 (MDAmb231 [8]): − (< = 2x fold over non-specific background)
antisense activity to human HDAC-3 (RNA expression, Northern blot) (human HDAC-3 RNA): antisense activity
Apoptosis After 48 Hour Treatment A549 (A549 [4]): − (< = 2x fold over non-specific background)
Growth Inhibition (AS vs. MM) A549 (A549 [11]): − (no inhibition)
growth arrest and apoptosis of human cancer cells (human cancer cells): no effect
Growth Inhibition (AS vs. MM) MDAmb231 (MDAmb231 [9]): − (no inhibition)
Growth Inhibition (AS vs. MM) T24 (T24 [12]): − (no inhibition)
Apoptosis After 48 Hour Treatment HMEC (HMEC [7]): − (< = 2x fold over non-specific background)

HDAC-4 AS2: antisense oligonucleotide to human HDAC4, 5′-TACAGTCCATGCAACCTCCA-3′ (SEQ ID NO:26) (sugars from the 5' end m4 d12 m4, all phosphorothioate, methylation of C and T or U not given here)
antisense activity to human HDAC-4 (RNA expression, Northern blot) (human HDAC-4 RNA): antisense activity

HDAC-5 AS: antisense oligonucleotide to human HDAC5, 5′-CTTCGGTCTCACCTGCTTGG-3′ (SEQ ID NO:28) (sugars from the 5' end m4 d12 m4, all phosphorothioate, methylation of C and T or U not given here)
antisense activity to human HDAC-5 (RNA expression, Northern blot) (human HDAC-5 RNA): antisense activity

HDAC-6 AS: antisense oligonucleotide to human HDAC6, 5′-CAGGCTGGAATGAGCTACAG-3′ (SEQ ID NO:29) (chemistry not given here)
Apoptosis After 48 Hour Treatment T24 (T24 [3]): − (< = 2x fold over non-specific background)
Growth Inhibition (AS vs. MM) HMEC (HMEC [10]): − (no inhibition)
Apoptosis After 48 Hour Treatment MDAmb231 (MDAmb231 [8]): − (< = 2x fold over non-specific background)
Apoptosis After 48 Hour Treatment A549 (A549 [4]): − (< = 2x fold over non-specific background)
Growth Inhibition (AS vs. MM) A549 (A549 [11]): − (no inhibition)
growth arrest and apoptosis of human cancer cells (human cancer cells): no effect
antisense activity to human HDAC-6 (RNA expression, Northern blot) (human HDAC-6 RNA): antisense activity
Growth Inhibition (AS vs. MM) T24 (T24 [12]): − (no inhibition)
Apoptosis After 48 Hour Treatment HMEC (HMEC [7]): − (< = 2x fold over non-specific background)

— patent US20040266718A1, “Inhibition of specific histone deacetylase isoforms” (priority 2001, published 2004)
